From patent US20240247253A1, “PRODUCTION METHOD OF POLYPEPTIDE, TAG, EXPRESSION VECTOR, EVALUATION METHOD OF POLYPEPTIDE, PRODUCTION METHOD OF NUCLEIC ACID DISPLAY LIBRARY, AND SCREENING METHOD” (FUJIFILM Corporation, priority 2021, published 2024)

Key:
[1] = system: cell-free peptide synthesis system derived from Escherichia coli; assay: Cell-free biosynthesis of the integrin binding peptide fusion protein with N-terminal tag, 1 hour reaction, amount measured by ELISA; format: biochemical
Excerpt: In the cell-free peptide synthesis system derived from Escherichia coli, the effect of the VKKX tag on the biosynthesis amount of the polypeptide was examined. As a polypeptide to be biosynthesized, an integrin binding peptide containing cysteine and chloroacetyl lysine was selected. In this polypeptide, a thiol group of cysteine and a chloroacetyl group of chloroacetyl lysine spontaneously form a thioether bond to become a cyclic polypeptide.
A fusion protein in which an integrin binding peptide, a Myc tag, and a HiBiT tag were linked in this order was designed. As a spacer, Gly-Gly-Ser was inserted between the integrin binding peptide and the Myc tag and between the Myc tag and the HiBiT tag. The amino acid sequence of this fusion protein is SEQ ID NO: 5, and the base sequence encoding this fusion protein is SEQ ID NO: 6. In SEQ ID NO: 5, the integrin binding peptide ranges to the amino acid at the twelfth position (that is, alanine) from an N-terminal, and the amino acid at eleventh position from the N-terminal is chloroacetyl lysine. The triplet TAG at the positions 31 to 33 from the 5′ terminal of the base sequence set forth in SEQ ID NO: 6 was assigned to the codon of chloroacetyl lysine. The end of the base sequence set forth in SEQ ID NO: 6 is the stop codon TAA.
A base sequence encoding a tagged fusion protein in which methionine, a VKKX tag (any of SEQ ID nOs: 7 to 52), and a fusion protein (SEQ ID NO: 5) were linked in this order was designed. In this base sequence, a base sequence (any of SEQ ID nOs: 53 to 98) encoding a VKKX tag is arranged immediately after the start codon ATG, and a base sequence encoding a fusion protein immediately after the base sequence (SEQ ID NO: 6) encoding the VKKX tag is arranged.
As a control example for evaluating the effect of the VKKX tag, a base sequence in which a base sequence (SEQ ID NO: 6) encoding a fusion protein arranged immediately after the start codon ATG was designed.
In order to translate chloroacetyl lysine which is an unnatural amino acid, a tRNA in which the anticodon was CUA and paired with the UAG codon of mRNA was prepared. This tRNA was aminoacylated with an N-chloroacetyl lysine hosphoro 2′ deoxyribocytidylylriboadenosine (pdCpA) ester. This aminoacyl tRNA is referred to as an Aminoacyl tRNA (1).
The cell-free biosynthesis of the polypeptide was carried out in a translation solution containing a template DNA, PUREfrex 2.0 (GeneFrontier, PF201-0.25-5), and Aminoacyl tRNA (1). 1.25 μL (62.5 ng) of the template DNA prepared to 50 ng/μL, 2.5 μL of PUREfrex 2.0 Solution I, 0.25 μL of Solution II, 0.5 μL of Solution III, and 0.5 μL of Aminoacyl tRNA (1) were mixed and mixture was subjected to a reaction at 37° ° C. for 1 hour.
The amount of the biosynthesized polypeptide was measured by ELISA. 50 ng of Recombinant Human Integrin αVβ3 (R&D systems, 3050-AV-050) was immobilized in each well of a 96-well plate and blocked with Blocker Casein in PBS (Thermo, 37528), and then a cell-free biosynthesis solution diluted with Can Get Signal Immunoreaction Enhancer Solution I (TOYOBO, NKB-101) containing 5 mmol/L MgCl2 was added thereto, and the mixture was subjected to a reaction at room temperature for 3 hours. After washing with 5 mmol/L MgCl2/0.05% Tween 20-containing phosphate buffered saline (PBS), an anti-Myc antibody (Cell Signaling, 14038S) diluted with Can Get Signal Immunoreaction Enhancer Solution II (TOYOBO, NKB-101) was added thereto, and the mixture was subjected to a reaction at room temperature for 2 hours. After washing with PBS containing 5 mmol/L MgCl2/0.05% Tween 20, Super Signal ELISA Femto Substrate (Thermo, 37075) was added thereto, and the luminescence was measured. The amount of the fusion protein in the cell-free biosynthesis solution was calculated based on a calibration curve created from the fusion protein having a known concentration. The luminescence measurement was performed twice, and the average value of the amounts of the fusion protein was calculated. […]

[2] = system: cell-free peptide synthesis system derived from Escherichia coli; assay: Cell-free biosynthesis of DHFR partial sequence-HiBiT fusion proteins with tag, 10 minutes, Nano Glo HiBiT quantification; format: biochemical
Excerpt: Regarding the effect of increasing the biosynthesis amount of the polypeptide by the tag (VKKTKT tag) represented by SEQ ID NO: 27, the influence of the length of the polypeptide to be synthesized was examined. The polypeptide to be biosynthesized is a fusion protein containing a partial sequence of dihydrofolate reductase (DHFR) and a luminescent (HiBiT) tag.
A fusion protein in which a partial sequence of DHFR and a HiBiT tag were linked in this order was designed. Gly-Gly-Ser was inserted as a spacer between the partial sequence of DHFR and the HiBiT tag. The amino acid sequences of these fusion proteins are set forth in SEQ ID NOs: 113 and 114, and these fusion proteins are a fusion protein (80 amino acid length) of the amino acids ranging to the amino acid at position 66 from the N-terminal of DHFR with a HiBiT tag and a fusion protein (100 amino acid length) of the amino acids ranging to the amino acid at position 86 from the N-terminal of DHFR with a HiBiT tag. The base sequences encoding these fusion proteins are SEQ ID NOs: 115 and 116.
A base sequence encoding a tagged fusion protein in which methionine, a VKKTKT tag (SEQ ID NO: 27) or a SKIK tag (SEQ ID NO: 107), and a fusion protein (any of SEQ ID NO: 113 or 114) were linked in this order was designed. In this base sequence, a base sequence (SEQ ID NO: 73 or 110) encoding a VKKTKT tag or a SKIK tag is arranged immediately after the start codon ATG, and a base sequence (any of SEQ ID NO: 115 or 116) encoding a fusion protein is arranged immediately after the base sequence encoding the VKKTKT tag or the SKIK tag.
As a control example for evaluating the effect of the VKKTKT tag or the SKIK tag, a base sequence in which a base sequence (any of SEQ ID NO: 115 or 116) encoding each of fusion protein arranged immediately after the start codon ATG was designed.
The fusion protein was expressed using a cell-free peptide synthesis system similar to the cell-free peptide synthesis system used in Example 1 by setting the incubation time of biosynthesis to 10 minutes. The obtained fusion protein was quantified using Nano Glo HiBiT Lytic Detection System (Promega, N3040). The measurement was performed twice, and the average value of the amounts of the fusion protein was calculated. […] The control example of the reference value 1 has a form in which the base sequence (SEQ ID NO: 115 or 116) encoding the fusion protein is arranged immediately after the start codon ATG.

[3] = fusion protein SEQ ID NO 113, amino acid length 80, control without tag = 1
[4] = fusion protein SEQ ID NO 114, amino acid length 100, control without tag = 1

Row | Substance | Biosynthesis amount of fusion protein ([1]; tag encoded by base sequence SEQ ID NO 108, GC content 8%, control without tag = 1) | Biosynthesis amount of fusion protein ([1]; tag encoded by base sequence SEQ ID NO 109, GC content 25%, control without tag = 1) | Biosynthesis amount of fusion protein ([1]; tag encoded by base sequence SEQ ID NO 110, GC content 42%, control without tag = 1) | Biosynthesis amount of fusion protein [2, 3] | Biosynthesis amount of fusion protein [2, 4] | increase of biosynthesis amount of the fusion protein ([1]; Example 1, versus control without tag, fusion protein SEQ ID NO: 5, 1 hour) | Biosynthesis amount of fusion protein ([1]; relative value, control example without tag = 1, fusion protein SEQ ID NO: 5, 37° C. for 1 hour, average of two measurements) | Biosynthesis amount of fusion protein ([1]; tag encoded by base sequence SEQ ID NO 73, GC content 17%, control without tag = 1) | Biosynthesis amount of fusion protein ([1]; tag encoded by base sequence SEQ ID NO 111, GC content 33%, control without tag = 1) | Biosynthesis amount of fusion protein ([1]; tag encoded by base sequence SEQ ID NO 112, GC content 50%, control without tag = 1)
1 | SEQ ID NO: 107: tag consisting of an amino acid sequence of SKIK, disclosed in WO2016/204198A; comparative control (SKIK Tag) [reference compound] | 3.79 | 4.18 | 1.46 | 1.13 | 0.73 | – | – | – | – | –
2 | SEQ ID NO: 27: VKKX tag, amino acid sequence VKKTKT (VKKX Tag) | – | – | – | 1.67 | 1.24 | 4.9 times | 4.94 | 4.94 | 3.83 | 3.77
